Values of other authors in patent US9238007B2, “Method for the production of a medicament containing tadalafil” (RATIOPHARM GMBH, priority 2007, dated 2016).

Conditions: according to WO 01/08687

Q: With `CN1CC(=O)N2[C@H](c3ccc4c(c3)OCO4)c3[nH]c4ccccc4c3C[C@@H]2C1=O` [Tadalafil, (6R,12aR)-6-(1,3-benzodioxol-5-yl)-2-methyl-1,2,3,4,6,7,12,12a-octahydropyrazino [2,1 :6,1]pyrido[3,4-b]indole-1,4-dione] as the molecule, how does the solubility in water read?
A: about 2 μg/ml
